From patent US10294202B2, “Pyrrolidinones as herbicides” (FMC Corporation, priority 2013, dated 2019)

How the values were obtained:
Assay in all cases: Test A pre-/postemergence herbicide test
barnyardgrass = type: in vivo, Echinochloa crus-galli; details: for Barnyardgrass plant response rating: Preemergence, visual rating on 0 to 100 scale (0 no effect, 100 complete control)
Source text: (§1) Seeds of plant species selected from bamyardgrass (Echinochloa crus-galli), kochia (Kochia scoparia), ragweed (common ragweed, Ambrosia elatior), ryegrass, Italian (Italian ryegrass, Lolium multiflorum), crabgrass, large (large crabgrass Digitaria sanguinalis), giant foxtail (Setaria faberii), morningglory (Ipomoea spp.), pigweed (Amaranthus retroflexus), velvetleaf (Abutilon theophrasti), wheat (Triticum aestivum), and corn (Zea mays) were planted into a blend of loam soil and sand and treated preemergence with a directed soil spray using test chemicals formulated in a non-phytotoxic solvent mixture which included a surfactant. At the same time, plants selected from these crop and weed species and also blackgrass (Alopecurus myosuroides), and galium (catchweed bedstraw, Galium aparine) were planted in pots containing the same blend of loam soil and sand and treated with postemergence applications of test chemicals formulated in the same manner. Plants ranged in height from 2 to 10 cm and were in the one- to two-leaf stage for the postemergence treatment. Treated plants and untreated controls were maintained in a greenhouse for approximately 10 days, after which time all treated plants were compared to untreated controls and visually evaluated for injury. Plant response ratings, summarized in Table A, are based on a 0 to 100 scale where 0 is no effect and 100 is complete control. A dash (-) response means no test result.

crabgrass, large = type: in vivo, Digitaria sanguinalis; details: for Crabgrass, Large plant response rating: Preemergence, visual rating on 0 to 100 scale (0 no effect, 100 complete control)
Source text: as §1

giant foxtail = type: in vivo, Setaria faberii; details: for Foxtail, Giant plant response rating: Preemergence, visual rating on 0 to 100 scale (0 no effect, 100 complete control)
In short: (§2)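 Scoring was visual, relative to untreated controls, on a 0–100 scale after about 10 greenhouse days. Preemergence treatment used a directed soil spray over seeded loam/sand; postemergence treatment targeted one- to two-leaf plants of 2–10 cm.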

morningglory = type: in vivo, Ipomoea spp.; details: for Morningglory plant response rating: Preemergence, visual rating on 0 to 100 scale (0 no effect, 100 complete control)
Source text: as §1

pigweed = type: in vivo, Amaranthus retroflexus; details: for Pigweed plant response rating: Preemergence, visual rating on 0 to 100 scale (0 no effect, 100 complete control)
In short: as §2

velvetleaf = type: in vivo, Abutilon theophrasti; details: for Velvetleaf plant response rating: Preemergence, visual rating on 0 to 100 scale (0 no effect, 100 complete control)
In short: as §2

wheat = type: in vivo, Triticum aestivum; details: for Wheat plant response rating: Preemergence, visual rating on 0 to 100 scale (0 no effect, 100 complete control)
Source text: as §1

corn = type: in vivo, Zea mays; details: for Corn plant response rating: Preemergence, visual rating on 0 to 100 scale (0 no effect, 100 complete control)
Source text: as §1

[1] = Postemergence, 125 g ai/ha, 0 to 100 scale, 0 no effect, 100 complete control
[2] = Postemergence, 500 g ai/ha, 0 to 100 scale (0 no effect, 100 complete control)
[3] = preemergence, 500 g ai/ha, 0 to 100 scale (0 no effect, 100 complete control)
[4] = preemergence, 500 g ai/ha, 0 to 100 scale

| Compound | Plant response rating, Barnyardgrass (barnyardgrass; [1]) | Plant response rating, Barnyardgrass (barnyardgrass; [2]) | Barnyardgrass plant response rating (barnyardgrass; 125 g ai/ha) | Plant response rating, Barnyardgrass (barnyardgrass; [3]) | Plant response rating, Crabgrass, Large (crabgrass, large; [1]) | Plant response rating, Crabgrass, Large (crabgrass, large; [2]) | Crabgrass, Large plant response rating (crabgrass, large; 125 g ai/ha) | Plant response rating, Crabgrass, Large (crabgrass, large; [4]) | Plant response rating, Foxtail, Giant (giant foxtail; [1]) | Plant response rating, Foxtail, Giant (giant foxtail; [2]) | Foxtail, Giant plant response rating (giant foxtail; 125 g ai/ha) | Plant response rating, Foxtail, Giant (giant foxtail; [4]) | Plant response rating, Morningglory (morningglory; [1]) | Plant response rating, Morningglory (morningglory; [2]) | Morningglory plant response rating (morningglory; 125 g ai/ha) | Plant response rating, Morningglory (morningglory; [4]) | Plant response rating, Pigweed (pigweed; [1]) | Plant response rating, Pigweed (pigweed; [2]) | Pigweed plant response rating (pigweed; 125 g ai/ha) | Plant response rating, Pigweed (pigweed; [4]) | also measured |
| --- | --- | --- | --- | --- | --- | --- | --- | --- | --- | --- | --- | --- | --- | --- | --- | --- | --- | --- | --- | --- | --- |
| O=C1NCC(c2ccc(F)c(F)c2)C1C(=O)Nc1cccc(C(F)(F)F)c1 (racemic) [Compound 13] | 0 | 30 | 0 | 50 | 0 | 60 | 50 | 80 | 0 | 0 | 0 | 30 | 0 | 0 | 0 | 0 | 0 | 0 | 0 | 0 | Plant response rating, Velvetleaf (velvetleaf; [1]): 0; Plant response rating, Velvetleaf (velvetleaf; [2]): 0; Velvetleaf plant response rating (velvetleaf; 125 g ai/ha): 0; Plant response rating, Velvetleaf (velvetleaf; [4]): 0; Plant response rating, Wheat (wheat; [1]): 0; Plant response rating, Wheat (wheat; [2]): 0; Wheat plant response rating (wheat; 125 g ai/ha): 0; Plant response rating, Wheat (wheat; [4]): 0; Plant response rating, Corn (corn; [1]): 0; Plant response rating, Corn (corn; [2]): 0; Corn plant response rating (corn; 125 g ai/ha): 0; Plant response rating, Corn (corn; [4]): 0 |
| CC1NC(=O)C(C(=O)Nc2ccccc2C(F)(F)F)C1c1ccc(F)c(F)c1 (mixture of isomers) [Compound 9] | 30 | 50 | 20 | 60 | 40 | 70 | 80 | 90 | 0 | 70 | 70 | 90 | 0 | 0 | 0 | 0 | 0 | 0 | 0 | 0 | Plant response rating, Velvetleaf (velvetleaf; [1]): 0; Plant response rating, Velvetleaf (velvetleaf; [2]): 0; Velvetleaf plant response rating (velvetleaf; 125 g ai/ha): 0; Plant response rating, Velvetleaf (velvetleaf; [4]): 0; Plant response rating, Wheat (wheat; [1]): 0; Plant response rating, Wheat (wheat; [2]): 0; Wheat plant response rating (wheat; 125 g ai/ha): 0; Plant response rating, Wheat (wheat; [4]): 0; Plant response rating, Corn (corn; [1]): 0; Plant response rating, Corn (corn; [2]): 0; Corn plant response rating (corn; 125 g ai/ha): 0; Plant response rating, Corn (corn; [4]): 0 |
| O=C1NCC(c2ccc(Cl)cc2Cl)C1C(=O)Nc1ccccc1F (racemic) [Compound 91] | 0 | 20 | 0 | 20 | 30 | 50 | 40 | 60 | 0 | 20 | 0 | 40 | 0 | 0 | 0 | 0 | 0 | 0 | 0 | 0 | Plant response rating, Velvetleaf (velvetleaf; [1]): 0; Plant response rating, Velvetleaf (velvetleaf; [2]): 0; Velvetleaf plant response rating (velvetleaf; 125 g ai/ha): 0; Plant response rating, Velvetleaf (velvetleaf; [4]): 0; Plant response rating, Wheat (wheat; [1]): 0; Plant response rating, Wheat (wheat; [2]): 0; Wheat plant response rating (wheat; 125 g ai/ha): 0; Plant response rating, Wheat (wheat; [4]): 0; Plant response rating, Corn (corn; [1]): 0; Plant response rating, Corn (corn; [2]): 0; Corn plant response rating (corn; 125 g ai/ha): 0; Plant response rating, Corn (corn; [4]): 0 |
